Tests used:
[1] = system: IL-6; assay: In vivo inflammation study, LPS stimulated mouse model, serum IL-6 by ELISA; parameters: species or system BALB/c Albino male mice; conditions: 12 h before LPS
Method: (§1) To explore the anti-inflammatory properties of the new aspirin derivative in NP formulation in vivo, we used mice stimulated with lipopolysaccharide (LPS). […] In our studies following similar protocol in C57BL/6 or BALB/c (albino) mice, we observed enhanced levels of TNF-α and IL-6 in the serum after intraperitonial administration of 100 μg of LPS per animal and the levels peaked at 1.5 and 3 h, respectively for TNF-α and IL-6. Next, 8 week old BALB/c male mice were administered with saline or aspirin (20 mg/kg) or NT-(Asp)4-NP (20 mg/kg with respect to aspirin) or T-(Asp)4-NP (20 mg/kg with respect to aspirin) by i.v. injections and after 12 h, these animals were subsequently treated with intraperitonially injected LPS for 1.5 h and 3 h (FIG. 3A). Serum samples were isolated from the treated animals and pro-inflammatory and anti-inflammatory cytokine levels in the serum samples were evaluated by the enzyme-linked immunosorbent assay (ELISA).
(§2) Anti-inflammatory properties of T/NT-(Asp)4-NPs and aspirin were evaluated in LPS stimulated mouse model. […] The absorbance of the product formed was recorded at 450 nm using a BioTek Synergy HT well plate reader.

[2] = system: TNF-α; assay: In vivo inflammation study, LPS stimulated mouse model, serum TNF-α by ELISA; parameters: species or system BALB/c Albino male mice; conditions: 20 mg/kg (with respect to aspirin) i.v.
Method: as §1, §2

CC(=O)Oc1ccccc1C(=O)O [aspirin, acetylsalicylic acid]
serum IL-6 level compared to only LPS ([1]; 20 mg/kg (with respect to aspirin) i.v., LPS for 1.5 h): significantly reduced | serum IL-6 level compared to LPS alone ([1]; 20 mg/kg i.v., LPS for 3 h): reduced IL-6 levels | serum TNF-α level compared to only LPS ([2]; 12 h before LPS i.p., LPS for 1.5 h): non-significant | serum TNF-α level ([2]; 12 h before LPS, LPS for 3 h): did not show any significant differences

From patent publication US20170087167A1, “MODIFICATION OF DRUGS FOR INCORPORATION INTO NANOPARTICLES” (UNIVERSITY OF GEORGIA RESEARCH FOUNDATION, INC., priority 2015, published 2017)
